Data as given in ChEMBL document CHEMBL1125315, “Synthesis and evaluation of 2-pyridinone derivatives as HIV-1-specific reverse transcriptase inhibitors. 2. Analogues of 3-aminopyridin-2(1H)-one” (J Med Chem, 1992).

Target: Human immunodeficiency virus type 1 reverse transcriptase (Human immunodeficiency virus 1, UniProt Q72547)
Experiment: In vitro HIV-1 RT inhibitory activity using rC.dG as template-primer
Conditions: not given

**Q.** With `CCc1cc(NCc2coc3ccccc3c2=O)c(=O)[nH]c1C` as the compound, how does the IC50 read?
**A.** 1100 nM

**Q.** For `CCc1cc(NCc2cc3ccccc3s2)c(O)nc1C`, which IC50 is on record?
**A.** 500 nM

**Q.** Which IC50 does the source give for `CCc1cc(NCc2nc3c(F)ccc(Cl)c3o2)c(=O)[nH]c1C` here?
**A.** 105 nM

**Q.** With `CCc1cc(NCc2ccc3ccccc3c2)c(=O)n(C)c1C` as the compound, how does the IC50 read?
**A.** 11000 nM

**Q.** How did the IC50 turn out when `CCc1cc(NCc2cc3cccc(Cl)c3o2)c(O)nc1C` was run?
**A.** 335 nM

**Q.** With `CCc1cc(NCc2cc3c(Cl)ccc(Cl)c3o2)c(O)nc1C` as the compound, how does the IC50 read?
**A.** 57 nM

**Q.** Which IC50 does the source give for `CCc1cc(NCc2ccc3ccccc3n2)c(=O)[nH]c1C` here?
**A.** 530 nM

**Q.** Which IC50 does the source give for `O=c1[nH]c2ccccc2cc1NCc1ccc2ccccc2c1` here?
**A.** > 300000 nM

**Q.** For `CCc1cc(NCc2cc3cnccc3o2)c(=O)[nH]c1C`, which IC50 is on record?
**A.** 32300 nM

**Q.** For `CCc1cc(NCc2nc3c(O)cccc3o2)c(=O)[nH]c1C`, which IC50 is on record?
**A.** 440 nM

**Q.** How did the IC50 turn out when `CCc1cc(NCc2nc3c([N+](=O)[O-])cccc3o2)c(O)nc1C` was run?
**A.** 24500 nM

**Q.** How did the IC50 turn out when `CCOC(=O)c1cc(NCc2nc3ccccc3o2)c(=O)[nH]c1C` was run?
**A.** 1750 nM

**Q.** Which IC50 does the source give for `CCc1cc(NCc2cc3ccncc3o2)c(O)nc1C` here?
**A.** 105000 nM

**Q.** With `CC(=O)c1cc(NCc2nc3c(Cl)ccc(Cl)c3o2)c(O)nc1C` as the compound, how does the IC50 read?
**A.** 300 nM

**Q.** How did the IC50 turn out when `CCc1cc(NCc2nc3ccc(F)cc3o2)c(=O)[nH]c1C` was run?
**A.** 1250 nM

**Q.** With `CCc1cc(NCc2nc3c(ccc4ccccc43)o2)c(O)nc1C` as the compound, how does the IC50 read?
**A.** 2700 nM

**Q.** Which IC50 does the source give for `CCc1cc(N(C)Cc2nc3c(C)ccc(C)c3o2)c(=O)[nH]c1C` here?
**A.** 103 nM

**Q.** For `CCSc1cc(NCc2nc3ccccc3o2)c(=O)[nH]c1C`, which IC50 is on record?
**A.** 430 nM

**Q.** How did the IC50 turn out when `CCc1cc(NCc2nc3c(Cl)cccc3o2)c(O)nc1C` was run?
**A.** 150 nM

**Q.** `Cc1[nH]c(=O)c(NCc2nc3c(Cl)ccc(Cl)c3o2)cc1C(C)O` (configuration not stated) was tested. Which IC50 did it give?
**A.** 1050 nM

**Q.** For `CCc1cc(NCc2ccc3ccccc3c2)c(=S)[nH]c1C`, which IC50 is on record?
**A.** 300 nM

**Q.** `CSc1cc(NCc2nc3ccccc3o2)c(O)nc1C` was tested. Which IC50 did it give?
**A.** 190 nM

**Q.** `CCc1cc(NCc2nc3cccc(CC)c3o2)c(O)nc1C` was tested. Which IC50 did it give?
**A.** 260 nM

**Q.** How did the IC50 turn out when `CCc1cc(NCc2nc3c(F)cccc3o2)c(=O)[nH]c1C` was run?
**A.** 110 nM

**Q.** With `CCc1cc(NCc2nc3ncccc3o2)c(O)nc1C` as the compound, how does the IC50 read?
**A.** 1900 nM

**Q.** With `Cc1cc(C)c(NCc2nc3c(Cl)ccc(Cl)c3o2)c(=O)[nH]1` as the compound, how does the IC50 read?
**A.** 2850 nM

**Q.** How did the IC50 turn out when `CCc1cc(NC(C)c2ccc3ccccc3c2)c(O)nc1C` (configuration not stated) was run?
**A.** 1130 nM

**Q.** How did the IC50 turn out when `CCc1cc(N(C)Cc2cc3c(Cl)ccc(Cl)c3o2)c(=O)[nH]c1C` was run?
**A.** 1050 nM

**Q.** `CCc1cc(NCc2ncc(-c3ccccc3)o2)c(=O)[nH]c1C` was tested. Which IC50 did it give?
**A.** 2350 nM

**Q.** For `CCc1cc(NCc2oc3ccccc3c2C)c(=O)[nH]c1C`, which IC50 is on record?
**A.** 1950 nM

**Q.** For `CCc1cc(N(C)Cc2nc3c(Cl)ccc(Cl)c3o2)c(=O)[nH]c1C`, which IC50 is on record?
**A.** 58 nM

**Q.** For `CCc1cc(NCc2nc3cccc(F)c3o2)c(=O)[nH]c1C`, which IC50 is on record?
**A.** 92 nM

**Q.** For `CCc1cc(NCc2nc3c(Cl)ccc(Cl)c3o2)c(S)nc1C`, which IC50 is on record?
**A.** 42 nM

**Q.** With `CCc1cc(NCc2nc3cc(F)ccc3o2)c(=O)[nH]c1C` as the compound, how does the IC50 read?
**A.** 470 nM

**Q.** Which IC50 does the source give for `CCc1cc(NCc2nc3ccc(C)cc3o2)c(=O)[nH]c1C` here?
**A.** 1650 nM

**Q.** For `CCc1cc(NCc2cnc3ccccc3c2)c(=O)[nH]c1C`, which IC50 is on record?
**A.** 335 nM

**Q.** Which IC50 does the source give for `Cc1[nH]c(=O)c(NCc2nc3ccccc3o2)cc1S(C)(=O)=O` here?
**A.** 1150 nM

**Q.** Which IC50 does the source give for `CCc1cc(NCc2ccoc2)c(O)nc1C` here?
**A.** 145000 nM

**Q.** For `CCc1cc(NCc2cc3ccccc3[nH]2)c(=O)[nH]c1C`, which IC50 is on record?
**A.** 4400 nM

**Q.** Which IC50 does the source give for `CCc1cc(NCc2cccc3ccccc23)c(=O)[nH]c1C` here?
**A.** 2100 nM

**Q.** `CCc1cc(N(CC)Cc2nc3c(Cl)ccc(Cl)c3o2)c(O)nc1C` was tested. Which IC50 did it give?
**A.** 654 nM

**Q.** With `COc1cc(NCc2nc3c(Cl)ccc(Cl)c3o2)c(O)nc1C` as the compound, how does the IC50 read?
**A.** 115 nM

**Q.** `CCc1cc(NCc2nc3c(OC)cccc3o2)c(=O)[nH]c1C` was tested. Which IC50 did it give?
**A.** 180 nM

**Q.** With `CCc1cc(NCc2cc3ccccc3o2)c(O)nc1C` as the compound, how does the IC50 read?
**A.** 330 nM

**Q.** With `CCc1cc(NCc2ccc3ccccc3c2)c(=O)[nH]c1C` as the compound, how does the IC50 read?
**A.** 460 nM

**Q.** `Cc1nc(O)c(NCc2nc3ccccc3o2)cc1[S+](C)[O-]` (configuration not stated) was tested. Which IC50 did it give?
**A.** 31500 nM

**Q.** `CCc1cc(NCc2ccco2)c(=O)[nH]c1C` was tested. Which IC50 did it give?
**A.** 29000 nM

**Q.** How did the IC50 turn out when `CSc1cc(NCc2nc3c(Cl)ccc(Cl)c3o2)c(O)nc1C` was run?
**A.** 43 nM

**Q.** For `CCc1cc(NCc2nc3cc(C)ccc3o2)c(O)nc1C`, which IC50 is on record?
**A.** 1250 nM

**Q.** How did the IC50 turn out when `CCc1cc(NCc2nc3ccccc3c(=O)[nH]2)c(=O)[nH]c1C` was run?
**A.** 2500 nM

**Q.** Which IC50 does the source give for `CCc1cc(NC(C)c2cc3ccccc3o2)c(=O)[nH]c1C` (configuration not stated) here?
**A.** 970 nM

**Q.** How did the IC50 turn out when `CCc1cc(NCc2nc3c(o2)CCCC3)c(=O)[nH]c1C` was run?
**A.** 280 nM

**Q.** How did the IC50 turn out when `CCc1cc(NCc2nc3cccc(Cl)c3o2)c(=O)[nH]c1C` was run?
**A.** 65 nM

**Q.** For `CCc1cc(NCc2ccccn2)c(O)nc1C`, which IC50 is on record?
**A.** 15000 nM

**Q.** `C=Cc1cc(NCc2nc3c(Cl)ccc(Cl)c3o2)c(=O)[nH]c1C` was tested. Which IC50 did it give?
**A.** 23 nM

**Q.** For `CCc1cc(NCc2nc3c(N)cccc3o2)c(O)nc1C`, which IC50 is on record?
**A.** 67000 nM

**Q.** For `CCc1cc(NCc2c[nH]c3ccccc23)c(O)nc1C`, which IC50 is on record?
**A.** 22500 nM

**Q.** Which IC50 does the source give for `CCc1cc(NCc2nc3cc4ccccc4cc3o2)c(=O)[nH]c1C` here?
**A.** 10000 nM

**Q.** How did the IC50 turn out when `CCc1c(C)[nH]c(=O)c(NCc2nc3ccccc3o2)c1C` was run?
**A.** 600 nM

**Q.** How did the IC50 turn out when `CCc1cc(NCc2nc3c(F)ccc(F)c3o2)c(=O)[nH]c1C` was run?
**A.** 70 nM

**Q.** Which IC50 does the source give for `CCc1cc(NCc2cccnc2)c(=O)[nH]c1C` here?
**A.** 300000 nM

**Q.** Which IC50 does the source give for `CCc1cc(NCc2ccccc2)c(=O)[nH]c1C` here?
**A.** 5330 nM

**Q.** Which IC50 does the source give for `CCc1cc(NCc2nc3ccccc3[nH]2)c(O)nc1C` here?
**A.** 7580 nM

**Q.** How did the IC50 turn out when `CCc1cc(NCc2nc3c(C)cccc3o2)c(O)nc1C` was run?
**A.** 120 nM

Test system: MT4
Experiment: Compound was evaluated for antiviral activity in MT-4 cells. Cell culture inhibitor concentration (CIC95) is defined as concentration which inhibited >95% the spread of HIV-1 IIIb infection in susceptible cell culture; value ranges from 0.025-0.050 uM
Type: functional
Conditions: Homo sapiens, read-out: CIC95

**Q.** With `CCc1cc(NCc2nc3c(C)ccc(C)c3o2)c(O)nc1C` as the compound, how does the IC95 read?
**A.** 25 nM

**Q.** `CCc1cc(NCc2nc3c(Cl)ccc(Cl)c3o2)c(O)nc1C` [L-697661] was tested. Which IC95 did it give?
**A.** 25 nM

Test system: H9
Experiment: Compound was evaluated for antiviral activity in H9 cells. Cell culture inhibitor concentration (CIC95) is defined as uM
Type: functional
Conditions: Homo sapiens, read-out: CIC95

**Q.** `CCc1cc(NCc2nc3c(C)ccc(C)c3o2)c(O)nc1C` was tested. Which IC95 did it give?
**A.** 100 nM

Test system: MT4
Experiment: Compound was evaluated for antiviral activity in MT-4 cells. Cell culture inhibitor concentration (CIC95) is defined as concentration which inhibited >95% the spread of HIV-1 IIIb infection in susceptible cell culture
Type: functional
Conditions: Homo sapiens, read-out: CIC95

**Q.** `CCc1cc(NCc2cc3c(Cl)ccc(Cl)c3o2)c(O)nc1C` was tested. Which IC95 did it give?
**A.** 50 nM

**Q.** For `CSc1cc(NCc2nc3c(Cl)ccc(Cl)c3o2)c(O)nc1C`, which IC95 is on record?
**A.** 100 nM

**Q.** With `CCc1cc(NCc2nc3ccccc3o2)c(O)nc1C` as the compound, how does the IC95 read?
**A.** 200 nM

Test system: MT4
Experiment: Compound was evaluated for antiviral activity against MT-4 cells. Cell culture inhibitor concentration (CIC95) is defined as those which inhibited by >95% the spread of HIV-1 IIIb infection in susceptible cell culture; value ranges from 0.012-0.025 uM
Type: functional
Conditions: Homo sapiens, read-out: CIC95

**Q.** `Cc1cn([C@H]2C[C@H](N=[N+]=[N-])[C@@H](CO)O2)c(=O)[nH]c1=O` [ZIDOVUDINE] was tested. Which IC95 did it give?
**A.** 12 nM

Test system: H9
Experiment: Compound was evaluated for antiviral activity against H9 cells. Cell culture inhibitor concentration (CIC95) is defined as those which inhibited by >95% the spread of HIV-1 IIIb infection in susceptible cell culture
Type: functional
Conditions: Homo sapiens, read-out: CIC95

**Q.** How did the IC95 turn out when `Cc1cn([C@H]2C[C@H](N=[N+]=[N-])[C@@H](CO)O2)c(=O)[nH]c1=O` [ZIDOVUDINE] was run?
**A.** 20000 nM
